Experimental data reported in ChEMBL document CHEMBL5506059, “Cyanomethylquinolones as a New Class of Potential Multitargeting Broad-Spectrum Antibacterial Agents” (J Med Chem, 2024).
≈ marks a conversion by molar mass, not a printed value. Calls of active or inactive are those of the source. No cut-off for these calls is given here.

Legend:
[1] = tested on: Enterococcus faecalis; assay: Antibacterial activity against Enterococcus faecalis clinical isolate assessed as inhibition of bacterial growth incubated for 24 hrs; assay type: functional
[2] = tested on: Staphylococcus aureus; assay: Antibacterial activity against Staphylococcus aureus clinical isolate assessed as inhibition of bacterial growth incubated for 24 hrs; assay type: functional
[3] = tested on: Pseudomonas aeruginosa; assay: Antibacterial activity against Pseudomonas aeruginosa ATCC 27853 assessed as inhibition of bacterial growth incubated for 24 hrs; assay type: functional
[4] = tested on: Calf thymus DNA; assay: Binding affinity to calf thymus DNA assessed as DNA-compound complex formation by measuring increase in absorption of DNA at 260 nm at 0 to 2.3 x 10^-8mol/L by UV absorption spectra based analysis; assay type: nucleic-acid assay; conditions: Bos taurus; dose 0-2.3 10^-8mol/L
[5] = tested on: Staphylococcus aureus; assay: Antibacterial activity against Staphylococcus aureus ATCC 12600 assessed as inhibition of bacterial growth incubated for 24 hrs; assay type: functional
[6] = tested on: Escherichia coli; assay: Antibacterial activity against Escherichia coli ATCC 25922 assessed as inhibition of bacterial growth incubated for 24 hrs; assay type: functional
[7] = tested on: Streptococcus pyogenes; assay: Antibacterial activity against Streptococcus pyogenes ATCC 19615 assessed as inhibition of bacterial growth incubated for 24 hrs; assay type: functional
[8] = tested on: Pseudomonas aeruginosa; assay: Antibacterial activity against Pseudomonas aeruginosa clinical isolate assessed as inhibition of bacterial growth incubated for 24 hrs; assay type: functional
[9] = tested on: Staphylococcus aureus; assay: Antibacterial activity against Staphylococcus aureus ATCC 25923 assessed as inhibition of bacterial growth incubated for 24 hrs; assay type: functional
[10] = tested on: Enterococcus faecalis; assay: Antibacterial activity against vancomycin-resistant Enterococcus faecalis clinical isolate p1-2007226001 assessed as inhibition of bacterial growth incubated for 24 hrs; assay type: functional
[11] = tested on: Calf thymus DNA; assay: Competitive binding affinity to calf thymus DNA assessed as displacement of neutral red from DNA-neutral red complex by measuring reduction in absorbance at 540 nm at 0 to 2.1x10^-8 mol/L by UV absorption spectroscopy; assay type: nucleic-acid assay; conditions: Bos taurus; dose 0-2.1 10^-8mol/L
[12] = tested on: Staphylococcus aureus; assay: Antibacterial activity against methicillin-resistant Staphylococcus aureus ATCC 43300 assessed as inhibition of bacterial growth incubated for 24 hrs; assay type: functional
[13] = tested on: Calf thymus DNA; assay: Binding affinity to calf thymus DNA assessed as disruption of DNA confirmation by measuring blue shift at 0 to 2.3 x 10^-8mol/L by UV absorption spectra based analysis; assay type: nucleic-acid assay; conditions: Bos taurus; dose 0-2.3 10^-8mol/L
[14] = tested on: Staphylococcus aureus; assay: Antibacterial activity against Staphylococcus aureus CMCC(B)26001 assessed as inhibition of bacterial growth incubated for 24 hrs; assay type: functional
[15] = tested on: Streptococcus pyogenes; assay: Potency index, ratio of norfloxacin MIC to test compound MIC for antibacterial activity against Streptococcus pyogenes ATCC 19615 assessed as inhibition of bacterial growth incubated for 24 hrs; assay type: functional
[16] = tested on: Streptococcus pneumoniae; assay: Antibacterial activity against Streptococcus pneumoniae ATCC 6305 assessed as inhibition of bacterial growth incubated for 24 hrs; assay type: functional
[17] = tested on: Staphylococcus aureus; assay: Antibacterial activity against Staphylococcus aureus ATCC 6538 assessed as inhibition of bacterial growth incubated for 24 hrs; assay type: functional
[18] = Cytotoxicity against human FHC assessed as cell viability at 20 ug/ml measured after 24 hrs by MTT assay relative to control; assay type: toxicity, cell-based; conditions: FHC cells, at 20 µg/mL, read-out: Activity
[19] = tested on: Klebsiella pneumoniae; assay: Antibacterial activity against Klebsiella pneumoniae clinical isolate assessed as inhibition of bacterial growth incubated for 24 hrs; assay type: functional
[20] = Cytotoxicity against human FHC assessed as inhibition of cell growth measured after 24 hrs by MTT assay; assay type: toxicity, cell-based; conditions: FHC cells
[21] = tested on: Staphylococcus aureus; assay: Antibacterial activity against Staphylococcus aureus CMCC(B)26003 assessed as inhibition of bacterial growth incubated for 24 hrs; assay type: functional
[22] = tested on: HUVEC; assay: Cytotoxicity against HUVEC cells assessed as reduction in cell viability at 0.78 to 25 ug/ml measured after 24 hrs by MTT assay; assay type: toxicity, cell-based; conditions: human, dose 0.78-25 µg/ml
[23] = tested on: Enterococcus faecium; assay: Antibacterial activity against Enterococcus faecium ATCC 19434 assessed as inhibition of bacterial growth incubated for 24 hrs; assay type: functional
[24] = tested on: Staphylococcus aureus; assay: Resistance development in methicillin resistant Staphylococcus aureus assessed as increase in MIC measured after 20 days; assay type: functional, organism-based; conditions: time 20.0 day
[25] = tested on: Erythrocyte; assay: Hemolytic activity in human Red blood cells assessed as concentration required for 5% hemolysis measured after 1.5 hrs by absorbance based assay; assay type: toxicity, cell-based
[26] = tested on: Staphylococcus aureus; assay: Antibacterial activity against Staphylococcus aureus ATCC 29213 assessed as inhibition of bacterial growth incubated for 24 hrs; assay type: functional
[27] = tested on: Streptococcus pyogenes; assay: Potency index, ratio of ciprofloxacin MIC to test compound MIC for antibacterial activity against Streptococcus pyogenes ATCC 19615 assessed as inhibition of bacterial growth incubated for 24 hrs; assay type: functional
[28] = tested on: Enterococcus faecalis; assay: Antibacterial activity against vancomycin-resistant Enterococcus faecalis clinical isolate p1-2007225053 assessed as inhibition of bacterial growth incubated for 24 hrs; assay type: functional
[29] = tested on: Staphylococcus epidermidis; assay: Antibacterial activity against Staphylococcus epidermidis ATCC 12228 assessed as inhibition of bacterial growth incubated for 24 hrs; assay type: functional
[30] = tested on: Escherichia coli; assay: Antibacterial activity against Escherichia coli clinical isolate assessed as inhibition of bacterial growth incubated for 24 hrs; assay type: functional
[31] = tested on: L02; assay: Cytotoxicity against human L02 cells assessed as reduction in cell viability at 0.78 to 25 ug/ml measured after 24 hrs by MTT assay; assay type: toxicity, cell-based; conditions: l02, 24 h, dose 0.78-25 µg/ml
[32] = tested on: Staphylococcus aureus; assay: Antibacterial activity against methicillin resistant Staphylococcus aureus clinical isolate assessed as inhibition of bacterial growth incubated for 24 hrs; assay type: functional
[33] = tested on: Pseudomonas aeruginosa; assay: Resistance development in Pseudomonas aeruginosa assessed as increase in MIC measured after 20 days; assay type: functional, organism-based; conditions: time 20.0 day
[34] = tested on: Calf thymus DNA; assay: Binding affinity to calf thymus DNA assessed as DNA-compound complex formation by measuring hypochromism at 0 to 2.3 x 10^-8mol/L by UV absorption spectra based analysis; assay type: nucleic-acid assay; conditions: Bos taurus; dose 0-2.3 10^-8mol/L
[35] = tested on: Acinetobacter baumannii; assay: Antibacterial activity against Acinetobacter baumannii clinical isolate assessed as inhibition of bacterial growth incubated for 24 hrs; assay type: functional
[36] = Cytotoxicity against HUVEC cells assessed as cell viability at 25 ug/ml measured after 24 hrs by MTT assay relative to control; assay type: toxicity, cell-based; conditions: human, at 25 µg/mL, read-out: Activity
[37] = Cytotoxicity against human normal Squamous epithelial cell (NOK) assessed as inhibition of cell growth measured after 24 hrs by MTT assay; assay type: toxicity, cell-based; conditions: normal squamous epithelial cells (NOK)
[38] = Hemolytic activity in human Red blood cells at 32 ug/ml measured after 1.5 hrs by absorbance based assay relative to control; assay type: toxicity, cell-based, Erythrocyte; conditions: red blood cells (erythrocytes), at 32 µg/mL, read-out: Activity
[39] = tested on: Calf thymus DNA; assay: Binding affinity to calf thymus DNA assessed as DNA-compound complex formation by measuring increase in absorption of DNA at 260 nm at 0 to 3.3 x 10^-8mol/L by UV absorption spectra based analysis; assay type: nucleic-acid assay; conditions: Bos taurus; dose 0-3.3 10^-8mol/L
[40] = tested on: Staphylococcus aureus; assay: Antibiofilm activity in methicillin resistant Staphylococcus aureus assessed as biofilm eradication measured after 24 hrs by crystal violet staining based analysis; assay type: functional, organism-based; conditions: dose 1-2 µg/ml
[41] = tested on: Calf thymus DNA; assay: Binding affinity to calf thymus DNA assessed as disruption of DNA confirmation by measuring blue shift at 0 to 3.3x10^-8mol/L by UV absorption spectra based analysis; assay type: nucleic-acid assay; conditions: Bos taurus; dose 0-3.3 10^-8mol/L
[42] = Hemolytic activity in human Red blood cells at 256 ug/ml measured after 1.5 hrs by absorbance based assay relative to control; assay type: toxicity, cell-based, Erythrocyte; conditions: red blood cells (erythrocytes), at 256 µg/mL, read-out: Activity
[43] = tested on: Pseudomonas aeruginosa; assay: Antibacterial activity against Pseudomonas aeruginosa assessed as reduction in metabolic activity by measuring reduction in fluorescence intensity at 0.5 to 2 times MIC incubated for 6 hrs by alamar blue assay; assay type: functional, organism-based
[44] = tested on: Calf thymus DNA; assay: Binding affinity to calf thymus DNA assessed as DNA-compound complex formation by measuring hyperchromism at 0 to 3.3 x 10^-8mol/L by UV absorption spectra based analysis; assay type: nucleic-acid assay; conditions: Bos taurus; dose 0-3.3 10^-8mol/L
[45] = tested on: Pseudomonas aeruginosa; assay: Induction of intracellular ROS generation in Pseudomonas aeruginosa assessed as increase in fluorescence intensity at 2 ug/ml incubated for 6 hrs by DCFH-DA dye based fluorescence analysis; assay type: functional, organism-based; conditions: dose 2.0 µg/ml
[46] = tested on: Staphylococcus aureus; assay: Antibacterial activity against methicillin resistant Staphylococcus aureus clinical isolate assessed as inhibition of bacterial growth at 1 times MIC incubated under dark condition and measured upto 5 hrs relative to control; assay type: functional
[47] = tested on: Staphylococcus aureus; assay: Antibacterial activity against methicillin resistant Staphylococcus aureus assessed as reduction in metabolic activity by measuring reduction in fluorescence intensity at 0.5 to 2 times MIC incubated for 6 hrs by alamar blue assay; assay type: functional, organism-based
[48] = tested on: Calf thymus DNA; assay: Competitive binding affinity to calf thymus DNA assessed as displacement of neutral red from DNA-neutral red complex by measuring reduction in absorbance at 540 nm at 0 to 2.9x10^-8 mol/L by UV absorption spectroscopy; assay type: nucleic-acid assay; conditions: Bos taurus; dose 0-2.9 10^-8mol/L
[49] = tested on: Pseudomonas aeruginosa; assay: Antibiofilm activity in Pseudomonas aeruginosa assessed as biofilm eradication measured after 24 hrs by crystal violet staining based analysis; assay type: functional, organism-based; conditions: dose 1-2 µg/ml
[50] = tested on: Pseudomonas aeruginosa; assay: Induction of intracellular ROS generation in Pseudomonas aeruginosa assessed as increase in fluorescence intensity at 2 ug/ml incubated for 6 hrs in presence of N-acetyl-L-cysteine by DCFH-DA dye based fluorescence analysis; assay type: functional, organism-based; conditions: dose 2.0 µg/ml

Row | Compound | MIC [1] | MIC [2] | MIC [3] | MIC [5] | MIC [6] | MIC [7] | MIC [8] | MIC [9] | MIC [10] | MIC [12] | MIC [14] | MIC [16] | MIC [17] | MIC [19] | MIC [21] | MIC [23] | Activity [24] | HC5 [25] | MIC [26] | MIC [28] | also measured
1 | N#CCc1cc2c(cc1F)c(=O)c(C(=O)O)cn2Cc1ccccc1Cl | 256 µg/mL (≈ 690 µM) | 256 µg/mL (≈ 690 µM) | 0.5 µg/mL (≈ 1.35 µM) | 128 µg/mL (≈ 345 µM) | 0.25 µg/mL (≈ 0.674 µM) | 0.25 µg/mL (≈ 0.674 µM) | 0.25 µg/mL (≈ 0.674 µM) | 0.25 µg/mL (≈ 0.674 µM) | 64 µg/mL (≈ 173 µM) | 4 µg/mL (≈ 10.8 µM) | 0.25 µg/mL (≈ 0.674 µM) | 16 µg/mL (≈ 43.2 µM) | 4 µg/mL (≈ 10.8 µM) | 2 µg/mL (≈ 5.39 µM) | 0.125 µg/mL (≈ 0.337 µM) | 4 µg/mL (≈ 10.8 µM) | inactive | 64 µg/mL | 0.25 µg/mL (≈ 0.674 µM) | 128 µg/mL (≈ 345 µM) | Activity [4]: Active; Activity [11]: Active; Activity [13]: Active; Ratio [15]: 128; viability at 24 h, 20 ug/ml [18]: > 80%; IC50 at 24 h [20]: 141 µg/mL (≈ 380 µM); Activity [22]: Non-Toxic; Ratio [27]: 64; MIC [29]: 0.25 µg/mL (≈ 0.674 µM); MIC [30]: 0.25 µg/mL (≈ 0.674 µM); Activity [31]: Non-Toxic; MIC [32]: 256 µg/mL (≈ 690 µM); Activity [33]: inactive; Activity [34]: Active; MIC [35]: 0.5 µg/mL (≈ 1.35 µM); viability at 24 h, 25 ug/ml [36]: > 90%; IC50 at 24 h [37]: 1.38 µg/mL (≈ 3.72 µM); hemolysis at 1.5 h, 32 ug/ml [38]: 4%
2 | C#CCn1cc(C(=O)O)c(=O)c2cc(F)c(CC#N)cc21 | 1 µg/mL (≈ 3.52 µM) | 256 µg/mL (≈ 901 µM) | 1 µg/mL (≈ 3.52 µM) | 16 µg/mL (≈ 56.3 µM) | 0.5 µg/mL (≈ 1.76 µM) | 1 µg/mL (≈ 3.52 µM) | 0.25 µg/mL (≈ 0.88 µM) | 0.25 µg/mL (≈ 0.88 µM) | 16 µg/mL (≈ 56.3 µM) | 4 µg/mL (≈ 14.1 µM) | 4 µg/mL (≈ 14.1 µM) | 32 µg/mL (≈ 113 µM) | 2 µg/mL (≈ 7.04 µM) | 2 µg/mL (≈ 7.04 µM) | 2 µg/mL (≈ 7.04 µM) | 4 µg/mL (≈ 14.1 µM) | inactive | > 10000 µg/mL | 1 µg/mL (≈ 3.52 µM) | 8 µg/mL (≈ 28.1 µM) | Activity [39]: Active; Activity [40]: Dose-Dependent Effect; Activity [41]: Active; hemolysis at 1.5 h, 256 ug/ml [42]: < 1%; Activity [43]: Active; Activity [44]: Active; Activity [45]: Active; inhibition (INH) [46]: ~100%; Activity [47]: Active; Activity [48]: Active; MIC [29]: 4 µg/mL (≈ 14.1 µM); MIC [30]: 1 µg/mL (≈ 3.52 µM); MIC [32]: 0.5 µg/mL (≈ 1.76 µM); Activity [49]: Dose-Dependent Effect; Activity [33]: inactive; MIC [35]: 0.5 µg/mL (≈ 1.76 µM); Activity [50]: inactive
